Results published in patent publication US20030092010A1, “Molecular switches” (priority 1999, published 2003).
*1 amine or outer side, *2 acyl side, *3 side chain or, on linkers, in order; H or OH if unused. Where a SMILES comes first, the peptide text is derived from it. Bridges are numbered along the chain shown (N, C = ends). Roman numbers before positions name the chains, in order. [ ]: non-standard residue; d: D form. Actinocin(9to1) = Cc1c2oc3c(C)ccc(C(=O)[*:1])c3nc-2c(C(=O)[*:2])c(N)c1=O; NMeV = CN[C@H](C(=O)O)C(C)C; Sar = CNCC(=O)O

Key:
DNA sequence AGCTTGGCG = experiment: phage ELISA: zinc finger phage binding to DNA target in presence and absence of actinomycin D; conditions: FIG. 2; phage AD clone 1 and 6
Procedure: Essentially the method was the same as used in the previous section using four rounds of a preselection step followed by a selection step, washing and elution. Differences in the method are described. The preselection step comprised of 7.5 μmol of biotinylated DNA target site immobilised on 18.75 μl streptavidin coated beads (Dynal) in a 100 μl mixture containing 4 μl phage library 96 μl PBS, 2% Marvel. 1% Tween-20. 50 μM ZnCl2 for 1 hour at room temperature with constant mixing. Phage selections were made in streptavidin coated tubes with the phage supernatant, 5 nM biotinylated target DNA, 10 μM actinomycin D in the presence of 1 μg poly [d(I-C)] competitor. The selections were incubated for 1 hour at room temperature. The bound phage were washed and eluted as described above.
ELISA was performed as described above but using 5 nM biotinylated target DNA. 0.25 μg poly[d(I−C)] competitor in the assay and 10 μM actinomycin D where appropriate. Phage were sequenced using Big Dye Terminator Cycle Sequencing Kit (Perkin Elmer Biosystems) and automated sequencing.

DNA target AGCTTGGCG = experiment: dissociation of zinc finger phage from DNA target by actinomycin D; format: binding
Procedure: (§1) This example describes phage that bound DNA targets with higher affinity in the absence of ligand. These phage were isolated using either: (a) the same method as in example 1.1, or (b) by selection in the absence of small molecule and phage elution from DNA using a small molecule.
(§2) Phage selection is over 4 rounds. Binding reactions contain […] biotinylated DNA site immobilised on 50 mg streptavidin coated beads (Dynal) and a 1 ml solution of ;zinc finger phage library (as described in 1.1) Reactions were incubated for 1 h on a rolling platform. After this time, beads were washed 20 times as described in 1.1 and finally phage were eluted from the beads over 5 minutes using a solution containing ligand (10 μM Distamycin A, or 1 μM Actinomycin D in PBS/Zn).
The actinomycin D sensitive clone was selected with the DNA target AGCTTGGCG and its helices were sequenced as: […]

[1] = tested on: CAT reporter gene downstream of the sequence AAAAAAGGCG; experiment: transient transfection CAT reporter assay with zinc finger-HSV VP16 fusion; format: cell-based; conditions: in the presence of Distamycin A; zinc finger-HSV VP16 fusion cotransfected
Description: A reporter system is produced which produces a reporter signal conditionally depending on the binding of the zinc finger DNA binding molecule to its target DNA sequence.
A transient transfection system using zinc finger transcription factors is produced as described in Choo, Y., et al., (1997) J. Mol. Biol 273:525-532. This system comprises an expression plasmid which produces a phage-selected zinc finger fused to the activation domain of HSV VP 16. and a reporter plasmid which contains the recognition sequence of the zinc finger upstream of a CAT reporter gene.
Thus, a zinc finger which recognises the DNA sequence AAAAAAGGCG is selected by phage display as described in Example 1. By the method of the preceding examples said zinc finger is used to construct transcription factors as described above.
A transient expression experiment is conducted, wherein the CAT reporter gene on the reporter plasmid is placed downstream of the sequence AAAAAAGGCG. The reporter plasmid is cotransfected with a plasmid vector expressing the zinc finger-HSV fision under the control of a constitutive promoter. No activation of CAT gene expression is observed.

DNA sequence AAAAAGGCG = experiment: phage ELISA: zinc finger phage binding to DNA target site in presence and absence of distamycin A; conditions: FIG. 1; phage clone 3 (3/2F) and clone 4 (4/EF)
[2] = tested on: DNA target AAAAAGCGGAAAAA; experiment: dissociation of zinc finger phage from DNA target by distamycin A; format: binding
Procedure: as §1, §2
Some phage isolated by either of the above methods (a or b) bound DNA in the absence of ligand but could be displaced by concentrations of distamycin A at 10 μM and actinomycin D at 1 μM. The distamycin sensitive clone was selected using the DNA target AAAAAGCGGAAAAA and its helices were sequenced as: […]

[3] = phage bound DNA in the absence of ligand

Cc1c2oc3c(C)ccc(C(=O)N[C@@H]4C(=O)N[C@H](C(C)C)C(=O)N5CCC[C@H]5C(=O)N(C)CC(=O)N(C)[C@@H](C(C)C)C(=O)O[C@@H]4C)c3nc-2c(C(=O)N[C@@H]2C(=O)N[C@H](C(C)C)C(=O)N3CCC[C@H]3C(=O)N(C)CC(=O)N(C)[C@@H](C(C)C)C(=O)O[C@@H]2C)c(N)c1=O [Actinomycin D] (I: T[dV]P[Sar][NMeV] / II: T[dV]P[Sar][NMeV]; ester I:1-I:C, II:1-II:C; linker I:N-II:N via Actinocin(9to1))
effect of Actinomycin D concentration on binding of phage to the DNA sequence AGCTTGGCG (DNA sequence AGCTTGGCG): causes phage binding to nucleic acid
dissociation / displacement of phage from DNA by actinomycin D (DNA target AGCTTGGCG; FIG. 6, actinomycin D sensitive clone): dissociated from the DNA
actinomycin D concentration at which DNA-bound phage could be displaced (DNA target AGCTTGGCG; [3]): 1 µM

Cn1cc(NC(=O)c2cc(NC(=O)c3cc(NC=O)cn3C)cn2C)cc1C(=O)NCCC(=N)N [Distamycin A]
CAT reporter gene expression [1]: CAT expression is observed
effect of Distamycin A concentration on binding of phage to the DNA sequence AAAAAGGCG (DNA sequence AAAAAGGCG): causes phage binding to nucleic acid
dissociation / displacement of phage from DNA by distamycin A ([2]; FIG. 6, distamycin sensitive clone): dissociated from the DNA
distamycin A concentration at which DNA-bound phage could be displaced [2, 3]: 10 µM
